Experimental data from patent US20080161399A1 (Ajinomoto Co., Inc., priority 2005, published 2008).

Biological target: T1, plasma albumin (Rattus norvegicus, UniProt P02770)
T1 construct: from tissue; host or cells: plasma of SD rats (carbon tetrachloride cirrhosis model and healthy controls)
Experiment: L-tryptophan binding rate to plasma albumin (ultrafiltration, LC/MS)
Format: in vitro ADME
Details: 37° C., n=2
Experimental: As a cirrhosis model rat, 25-week-old male SD rats (n=2) were prepared by administering carbon tetrachloride twice a week for 18 consecutive weeks and used, and 10-week-old healthy SD rats (n=2) were used as a control.
The plasma was preincubated at 37° C. for 20 min, 10 μL of L-tryptophan solution (10 mM) was added per 1 mL of plasma and they were mixed well (A). Solution A (450 μL) was dispensed to an ultrafiltration tube (Millipore, molecular weight 30,000 cut) and centrifuged at 3,000 g for 5 min at 37° C. to give 50 μL of filtrate (B) and 50 μL of unfiltrated solution (C). An equivalent amount of 8% (w/v) TCA solution was added to each of A and B, mixed and the mixture was centrifuged at room temperature and 3,000 g for 5 min. A protein-free supernatant was recovered. Thereto was added a 4-fold amount of 0.125% (v/v) heptafluorobutyric acid (HFBA) solution, mixed, diluted with 0.1% HFBA so that the concentration would fall within the range defined by the standard curve. Then, the concentration of L-tryptophan in each sample was quantified by the LC/MS method. The L-tryptophan binding rate to plasma albumin was shown by [1-(Trp concentration (B)/Trp concentration (A))]×100(%). The recovery rate was calculated by [Trp concentration (B)×50 μL+Trp concentration (C)×400 μL]/[Trp concentration (A)×450 μL]×100(%).

T1 sequence (P02770 25-608): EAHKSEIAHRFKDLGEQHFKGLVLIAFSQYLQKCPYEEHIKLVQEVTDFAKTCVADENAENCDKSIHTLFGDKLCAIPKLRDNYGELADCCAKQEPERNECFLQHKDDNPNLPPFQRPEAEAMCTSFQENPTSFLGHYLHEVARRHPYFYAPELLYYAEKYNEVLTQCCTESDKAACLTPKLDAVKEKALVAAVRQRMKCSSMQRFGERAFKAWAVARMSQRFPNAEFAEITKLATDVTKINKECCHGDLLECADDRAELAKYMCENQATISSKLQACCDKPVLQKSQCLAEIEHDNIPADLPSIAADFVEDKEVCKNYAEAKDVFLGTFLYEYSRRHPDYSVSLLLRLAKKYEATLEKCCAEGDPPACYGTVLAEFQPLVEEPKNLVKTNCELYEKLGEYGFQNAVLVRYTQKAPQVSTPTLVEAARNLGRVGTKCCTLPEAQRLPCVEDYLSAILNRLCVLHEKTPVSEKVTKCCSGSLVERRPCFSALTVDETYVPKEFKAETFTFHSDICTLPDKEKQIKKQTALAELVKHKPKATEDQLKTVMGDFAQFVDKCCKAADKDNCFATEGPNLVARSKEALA

## N[C@@H](Cc1c[nH]c2ccccc12)C(=O)O [L-tryptophan]
Plasma of cirrhosis model rats (carbon tetrachloride, 18 weeks)
  L-tryptophan binding rate to albumin: 48%
Plasma of normal (healthy SD) rats
  L-tryptophan binding rate to albumin: 83%
